Measured values: US8444972B2, “Antitumor antibodies, proteins, and uses thereof” (University of Massachusetts, priority 1999, dated 2013)

Test system: E710.2.3
Experiment: Homotypic aggregation assay

Paraformaldehyde
HOMOTYPIC ADHESION induced by DMF10.62.3 in presence of chemical: inhibited
